# Experimental data reported in patent US20230181580A1, “TREATMENT OF PROLIFERATIVE DISEASES OF THE CNS” (AUCENTRA THERAPEUTICS PTY LTD, priority 2020, published 2023).
# Assays:
# Type in all cases: cell-based
# H460 = assay: MTT proliferation assay, lung; conditions: Homo sapiens, NCI-H460, 72 h, read-out: Antiproliferative activity GI50 H460
# Source text: (§1) Representative compounds from Example 1, were subjected to standard MTT (3-(4,5-dimethylthiazol-2-yl)-2,5-diphenyltetrazolium bromide) and resazurin assays on solid tumour cell lines (including GBM cell lines) and leukemia cell lines, respectively, as previously reported (Wang S et al., J Med Chem 47:1662-1675, 2004; and Diab S. et al. CheMedChem 9:962-972, 2014).
# A2780 = assay: MTT proliferation assay, ovarian; conditions: Homo sapiens, 72 h, read-out: Antiproliferative activity GI50 A2780
# Source text: as §1
# [1] = test system: phosphorylated Rb proteins (pRb Ser780, pRbSer795, pRb807/811); assay: Western blot analysis of Rb phosphorylation; conditions: 24 h treatment, FIG. 3A
# Protocol: Cells were seeded at a density of 3×10^5 with 10 mL fresh medium on a sterile culture dish and incubated at 37° C. 5% CO2 for overnight prior to compound treatment. After 24 h, cells were harvested with PBS, centrifuged at 300×g for 5 mins, and lysed with 100 μL lysis buffer (25 mM 4-(2-hydroxyethyl)-1-piperazineethanesulphonic acid, 300 mM sodium chloride, 1.5 mM magnesium chloride, 0.5% sodium deoxycholate, 20 mM p-glycerophosphate, 1% Triton X-100, 0.1% sodium dodecyl sulphate, 0.2 mM EDTA, 0.5 mM dithiothreitol, 1 mM sodium orthovanadate and 25× protease inhibitor cocktail). Protein lysate was collected after 10 mins of maximum speed centrifugation at 4° C. The protein concentration of cell lysates was determined through performing a BSA standard curve using the Bio-Rad DC protein assay kit II (Bio-Rad, Sydney, NSW, Australia) according to the manufacturer's protocol. 30 μg protein was measured, mixed with 3× loading buffer and denatured at 95° C. for 5 mins using T100 thermal cycler (Bio-Rad). Molecular mass of each sample was then separated by gel electrophoresis on a 4-20% polyacrylamide gel at 120V for 1 h. The resolved proteins were transferred onto nitrocellulose membranes and blocked with 5% skimmed milk in Tris-buffered saline and Tween 20 (TBST) for 1 h at room temperature. […] Band intensity was determined using a ChemiDoc™ multiplexing imaging system (Bio-Rad). […]
smiles,measurement,setting,value
"CNc1nc(C)c(-c2nc(Nc3ccc(N4CCC(N(C)C)CC4)cn3)ncc2F)s1 [Compound 1, 5-(2-((5-(4-(dimethylamino)piperidin-1-yl)pyridin-2-yl)amino)-5-fluoropyrimidin-4-yl)-N,4-dimethylthiazol-2-amine]",GI50,H460,3280 nM
same,GI50,A2780,70 nM
same,level of phosphorylated Rb proteins,[1],reduces the level of phosphorylated Rb proteins
